# The SangsterLogP compilation
row,Compound,logP
1,Cc1cc(C)cc(N2C(=O)CCC2=O)c1,1.16
2,O=C1CCC(=O)N1c1cc(Cl)cc(Cl)c1,1.88
3,Oc1cccc(C(F)(F)F)c1,2.61
4,CCCc1cccc(N2C(=O)CCC2=O)c1,1.52
5,O=C1CCC(=O)N1c1cc(C(F)(F)F)cc(C(F)(F)F)c1,2.25
6,O=C1CCC(=O)N1c1cc(Cl)cc(Cl)c1Cl,2.44
7,O=C1CCC(=O)N1c1cc(Cl)c(Cl)c(Cl)c1,2.92
8,O=C1CC(c2cccc(C(F)(F)F)c2)C(=O)N1 (stereo not drawn),1.35
9,O=C1CCC(=O)N1c1ccc(C(F)(F)F)cc1,1.3
10,O=C1CCC(=O)N1c1cc(Br)cc(Br)c1,2.12

# The next lines start with the values.
row,logP,Compound
1,2.43,Cc1ccc(C(=O)O)cc1
2,4.74,Cc1cccc(Nc2ccccc2C(=O)O)c1
3,1.26,CC(=O)Oc1cccc(O)c1
4,2.05,O=C(O)c1cccc(F)c1
5,1.55,N#Cc1ccc(C(=O)O)cc1
6,2.83,O=C(O)c1cccc(Br)c1
7,2.91,O=C(c1ccccc1)c1ccc(O)cc1
8,4.42,O=C(O)c1ccccc1Nc1cccc([N+](=O)[O-])c1
